The subject of the experiment is Dspp gene. The experiment in a line: Dspp mRNA level in human dental pulp cells treated with peptide (real-time PCR). It counts as cell-based. Conditions: hDPCs, peptide 10 μg/ml, 48 hours; ratio relative to Dspp mRNA level of untreated control; GAPDH internal control; triplicate. On the procedure: Human dental pulp cells were separated from wisdom teeth of adults (aged 18-22) at the School of Dentistry, Seoul National University. In detail, all experiments were performed after the approval of the Institutional Review Board and the informed consent from patients. Wisdom teeth were fractured according to a method of Jung HS et al. (J Mol Histol.(2011)) to expose the dental pulps, and dental pulp tissues were separated with forceps. Each of the separated dental pulp tissues was cut into small pieces with a razor blade, put in a 60-mm dish, covered with a coverslip, and then cultured in a Dulbecco's modified Eagle's medium. It has been known that human dental pulp cells can differentiate into odontoblast, osteoblast, cementoblast, and periodontal ligament cells under various conditions (Tissue Eng Part A. 2014 April; 20 (7-8): 1342-51).
Total RNA was extracted from human dental pulp cells (hDPCs), and human bone marrow mesenchymal stem cells (hBMSCs) with TRIzol reagent. 2 μg of the total RNA, 1 μl of reverse transcriptase, and 0.5 μg of oligo (oligo; dT) were used to synthesize cDNA. The synthesized cDNA was used in a real-time polymerase chain reaction. The real-time polymerase chain reaction was performed on an ABI PRISM 7500 sequence detection system (Applied Biosystems) and an SYBR GREEN PCR Master Mix (Takara, Japan). The real-time polymerase chain reaction was performed under conditions of 94° C., 1 min; 95° C., 15 sec; 60° C., 34 sec for 40 cycles. Results were analyzed by a comparative cycle threshold (CT) method. And the used primers are as follows (Table 17).
The human dental pulp cells (hDPCs) cultured in Example 3 were treated with the peptides (concentration of 10 μg/ml) of each group synthesized in Example 1-1, and cultured for 48 hours. Then, mRNA levels of an odontoblast differentiation marker Dspp gene expressed in the human dental pulp cells were measured, and a ratio of the measured Dspp mRNA level relative to a Dspp mRNA level measured in a control group was calculated, respectively (Tables 18 to 33).
The expression level of the Dspp gene was measured through RT-PCR and real-time PCR analysis described in Example 1-4. In this regard, GAPDH gene was used as an internal control. The experiments were performed in triplicate, and then mean values and standard deviations thereof were taken as measured values. The base sequence of the primers is described in Table 17 above.
In general terms: Real-time PCR tracks product formation cycle by cycle.
For “120 (KYRNKRR; Novel peptide) [compound 120]”, the “mRNA level of Dspp gene, Mean” value is listed as 1.878.

“79 (KYRNKKR; Novel peptide) [compound 79]”: the “mRNA level of Dspp gene, Mean” value is 2.403. Turning to “95 (KYQNKKR; Novel peptide) [compound 95]”, the “mRNA level of Dspp gene, Mean” value amounted to 1.939. With “29 (KYQQKKK; Novel peptide) [compound 29]” the figure was 2.926; with “64 (KYNKKRR; Novel peptide) [compound 64]”, 1.829. With “101 (KYNQKKK; Novel peptide) [compound 101]” the figure was 1.674; with “52 (KYQKRRR; Novel peptide) [compound 52]”, 1.949. In the case of “122 (KYKKRKR; Novel peptide) [compound 122]”, the “mRNA level of Dspp gene, Mean” value was determined as 1.979. With “109 (KYNNKKK; Novel peptide) [compound 109]” the figure was 1.756; with “65 (KYNRRKK; Novel peptide) [compound 65]”, 2.201. With “119 (KYRNKKR; Novel peptide) [compound 119]” the figure was 2.121; with “58 (KYNKRKR; Novel peptide) [compound 58]”, 2.677. Turning to “110 (KYNNKRK; Novel peptide) [compound 110]”, the “mRNA level of Dspp gene, Mean” value came to 1.595. With “49 (KYQKRKK; Novel peptide) [compound 49]” the figure was 1.631; with “38 (KYRRKRK; Novel peptide) [compound 38]”, 2.099; with “30 (KYQQKRK; Novel peptide) [compound 30]”, 2.011. On to “62 (KYNKKRK; Novel peptide) [compound 62]”, for which the “mRNA level of Dspp gene, Mean” value is listed as 2.752. For the substance “86 (KYKNKRK; Novel peptide) [compound 86]”, the “mRNA level of Dspp gene, Mean” value is listed as 1.736. With “35 (KYRRRRK; Novel peptide) [compound 35]” the figure was 3.017; with 3 (KYQRRRK; Novel peptide) [compound 3], 6.512; with “27 (KYQQRRK; Novel peptide) [compound 27]”, 2.213. With 6 (KYQRKRK; Novel peptide) [compound 6] the figure was 6.931. “116 (KYRKRRR; Novel peptide) [compound 116]”: the “mRNA level of Dspp gene, Mean” value came out at 1.693. With “94 (KYQNKRK; Novel peptide) [compound 94]” the figure was 1.487. With “74 (KYRNRKR; Novel peptide) [compound 74]” the figure was 2.105; with “97 (KYNQRKK; Novel peptide) [compound 97]”, 1.515. With “12 (KYRQRRR; Novel peptide) [compound 12]” the figure was 7.548; with “104 (KYNQKRR; Novel peptide) [compound 104]”, 1.878; with “14 (KYRQKRK; Novel peptide) [compound 14]”, 6.839. With “102 (KYNQKRK; Novel peptide) [compound 102]”, the “mRNA level of Dspp gene, Mean” value came to 1.855. With 1 (KYQRRKK; Novel peptide) [compound 1] the figure was 7.371. With “11 (KYRQRRK; Novel peptide) [compound 11]” the figure was 7.385; with “127 (KYKKKKR; Novel peptide) [compound 127]”, 1.888; with “75 (KYRNRRK; Novel peptide) [compound 75]”, 2.624. With “67 (KYNRRRK; Novel peptide) [compound 67]” the figure was 2.452.

In the case of “10 (KYRQRKR; Novel peptide) [compound 10]”, the “mRNA level of Dspp gene, Mean” value worked out at 6.996. With “114 (KYRKRKR; Novel peptide) [compound 114]” the figure was 1.849; with “72 (KYNRKRR; Novel peptide) [compound 72]”, 1.739; with “34 (KYRRRKR; Novel peptide) [compound 34]”, 3.727. With “77 (KYRNKKK; Novel peptide) [compound 77]” the figure was 1.939; with “55 (KYQKKKR; Novel peptide) [compound 55]”, 2.

Take “24 (KYKQKRR; Novel peptide) [compound 24]”: the “mRNA level of Dspp gene, Mean” value was 8.512. As to “81 (KYKNRKK; Novel peptide) [compound 81]”, the “mRNA level of Dspp gene, Mean” value is on record as 1.757. As to “28 (KYQQRRR; Novel peptide) [compound 28]”, the “mRNA level of Dspp gene, Mean” value is listed as 2.781. Consider 4 (KYQRRRR; Novel peptide) [compound 4], for which the “mRNA level of Dspp gene, Mean” value is 7.071.

Regarding “53 (KYQKKKK; Novel peptide) [compound 53]”, the “mRNA level of Dspp gene, Mean” value was found to be 1.422. With “103 (KYNQKKR; Novel peptide) [compound 103]” the figure was 1.737; with “66 (KYNRRKR; Novel peptide) [compound 66]”, 2.072; with “22 (KYKQKRK; Novel peptide) [compound 22]”, 7.412. With “82 (KYKNRKR; Novel peptide) [compound 82]” the figure was 1.909. With “96 (KYQNKRR; Novel peptide) [compound 96]” the figure was 2.011; with “84 (KYKNRRR; Novel peptide) [compound 84]”, 2.101; with “115 (KYRKRRK; Novel peptide) [compound 115]”, 1.707. For the substance “70 (KYNRKRK; Novel peptide) [compound 70]”, the “mRNA level of Dspp gene, Mean” value is 1.947. With “112 (KYNNKRR; Novel peptide) [compound 112]” the figure was 1.699; with “105 (KYNNRKK; Novel peptide) [compound 105]”, 1.664.

With “123 (KYKKRRK; Novel peptide) [compound 123]”, the “mRNA level of Dspp gene, Mean” value came out at 1.837. “13 (KYRQKKK; Novel peptide) [compound 13]”: the “mRNA level of Dspp gene, Mean” value stood at 6.655. With “124 (KYKKRRR; Novel peptide) [compound 124]” the figure was 2.017; with “68 (KYNRRRR; Novel peptide) [compound 68]”, 2.343.

For the substance “19 (KYKQRRK; Novel peptide) [compound 19]”, the “mRNA level of Dspp gene, Mean” value is listed as 7.931. With “59 (KYNKRRK; Novel peptide) [compound 59]” the figure was 2.463; with “51 (KYQKRRK; Novel peptide) [compound 51]”, 1.569; with “111 (KYNNKKR; Novel peptide) [compound 111]”, 1.918. With “42 (KYKRRKR; Novel peptide) [compound 42]” the figure was 2.808; with “83 (KYKNRRK; Novel peptide) [compound 83]”, 2.001.

For the substance “107 (KYNNRRK; Novel peptide) [compound 107]”, the “mRNA level of Dspp gene, Mean” value was determined as 1.935.

“44 (KYKRRRR; Novel peptide) [compound 44]”: the “mRNA level of Dspp gene, Mean” value came out at 2.517. As for 5 (KYQRKKK; Novel peptide) [compound 5], the “mRNA level of Dspp gene, Mean” value is reported as 6.893. With “93 (KYQNKKK; Novel peptide) [compound 93]” the figure was 1.892; with “21 (KYKQKKK; Novel peptide) [compound 21]”, 7.893; with “128 (KYKKKRR; Novel peptide) [compound 128]”, 1.765. With “23 (KYKQKKR; Novel peptide) [compound 23]” the figure was 9.171; with “37 (KYRRKKK; Novel peptide) [compound 37]”, 3.303; with “60 (KYNKRRR; Novel peptide) [compound 60]”, 2.089. Turning to “26 (KYQQRKR; Novel peptide) [compound 26]”, the “mRNA level of Dspp gene, Mean” value is 2.623.

The values are drawn from patent publication US11390648B2, “Peptide” (HYSENSBIO, priority 2017, dated 2022).
